Columns and labels:
Assay type in all cases: cell-based
[1] = target: T1, SMARCA2 (Homo sapiens, UniProt P51531); assay: SMARCA2 Western blot MV4-11 degradation; conditions: 24 h; for Dmax: MV4-11, MV4-11 cells, read-out: SMARCA2 WB MV411 degradation 24 h: Average Dmax %; for DC50: MV4-11 cells, read-out: SMARCA2 WB MV411 degradation 24 h: Average external-Abs DC50
In short: (§1)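 MV4-11 cells treated with compound for 24 h, lysed in RIPA with protease/phosphatase inhibitors, and SMARCA2 and SMARCA4 (BRG1) levels assessed by Western blot with β-actin loading control and LI-COR fluorescent read-out. Maximal degradation (Dmax %) after 24 h binned into letter codes.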

[2] = target: T1, SMARCA2; assay: MSD SMARCA2 degradation in NCI-H1299 cell line (24 h); parameters: HC: NCI-H1299 cells treated with DMSO; host or cells: NCI-H1299; conditions: for Dmax: NCI-H1299, NCI-H1299 cells; for DC50: read-out: SMARCA2 MSD H1299 degradation 24 h: External Abs-DC50
In short: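 NCI-H1299 cells treated 24 h with a 3-fold, 9-point compound dilution series, then lysed in RIPA with protease inhibitor. SMARCA2 in lysate-coated MSD plates detected with rabbit anti-SMARCA2 (0.3 ug/ml) and SULFO-TAG secondary. Relative SMARCA2 level normalized between DMSO-treated H1299 cells and SMARCA2-negative A2780 cells; Dmax % binned A–D.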

[3] = target: T2, SMARCA4 (Homo sapiens, UniProt P51532); assay: SMARCA4 Western blot MV4-11 degradation; conditions: 24 h; for Dmax: MV4-11, MV4-11 cells, read-out: SMARCA4 WB MV411 degradation 24 h: Average Dmax %; for DC50: MV4-11 cells, read-out: SMARCA4 WB MV411 degradation 24 h: Average external-Abs DC50
T2 construct: SMARCA2 and SMARCA4 protein degradation in MV4-11 cells; endogenous in cells; host or cells: MV4-11
T2 sequence (P51532 whole entry): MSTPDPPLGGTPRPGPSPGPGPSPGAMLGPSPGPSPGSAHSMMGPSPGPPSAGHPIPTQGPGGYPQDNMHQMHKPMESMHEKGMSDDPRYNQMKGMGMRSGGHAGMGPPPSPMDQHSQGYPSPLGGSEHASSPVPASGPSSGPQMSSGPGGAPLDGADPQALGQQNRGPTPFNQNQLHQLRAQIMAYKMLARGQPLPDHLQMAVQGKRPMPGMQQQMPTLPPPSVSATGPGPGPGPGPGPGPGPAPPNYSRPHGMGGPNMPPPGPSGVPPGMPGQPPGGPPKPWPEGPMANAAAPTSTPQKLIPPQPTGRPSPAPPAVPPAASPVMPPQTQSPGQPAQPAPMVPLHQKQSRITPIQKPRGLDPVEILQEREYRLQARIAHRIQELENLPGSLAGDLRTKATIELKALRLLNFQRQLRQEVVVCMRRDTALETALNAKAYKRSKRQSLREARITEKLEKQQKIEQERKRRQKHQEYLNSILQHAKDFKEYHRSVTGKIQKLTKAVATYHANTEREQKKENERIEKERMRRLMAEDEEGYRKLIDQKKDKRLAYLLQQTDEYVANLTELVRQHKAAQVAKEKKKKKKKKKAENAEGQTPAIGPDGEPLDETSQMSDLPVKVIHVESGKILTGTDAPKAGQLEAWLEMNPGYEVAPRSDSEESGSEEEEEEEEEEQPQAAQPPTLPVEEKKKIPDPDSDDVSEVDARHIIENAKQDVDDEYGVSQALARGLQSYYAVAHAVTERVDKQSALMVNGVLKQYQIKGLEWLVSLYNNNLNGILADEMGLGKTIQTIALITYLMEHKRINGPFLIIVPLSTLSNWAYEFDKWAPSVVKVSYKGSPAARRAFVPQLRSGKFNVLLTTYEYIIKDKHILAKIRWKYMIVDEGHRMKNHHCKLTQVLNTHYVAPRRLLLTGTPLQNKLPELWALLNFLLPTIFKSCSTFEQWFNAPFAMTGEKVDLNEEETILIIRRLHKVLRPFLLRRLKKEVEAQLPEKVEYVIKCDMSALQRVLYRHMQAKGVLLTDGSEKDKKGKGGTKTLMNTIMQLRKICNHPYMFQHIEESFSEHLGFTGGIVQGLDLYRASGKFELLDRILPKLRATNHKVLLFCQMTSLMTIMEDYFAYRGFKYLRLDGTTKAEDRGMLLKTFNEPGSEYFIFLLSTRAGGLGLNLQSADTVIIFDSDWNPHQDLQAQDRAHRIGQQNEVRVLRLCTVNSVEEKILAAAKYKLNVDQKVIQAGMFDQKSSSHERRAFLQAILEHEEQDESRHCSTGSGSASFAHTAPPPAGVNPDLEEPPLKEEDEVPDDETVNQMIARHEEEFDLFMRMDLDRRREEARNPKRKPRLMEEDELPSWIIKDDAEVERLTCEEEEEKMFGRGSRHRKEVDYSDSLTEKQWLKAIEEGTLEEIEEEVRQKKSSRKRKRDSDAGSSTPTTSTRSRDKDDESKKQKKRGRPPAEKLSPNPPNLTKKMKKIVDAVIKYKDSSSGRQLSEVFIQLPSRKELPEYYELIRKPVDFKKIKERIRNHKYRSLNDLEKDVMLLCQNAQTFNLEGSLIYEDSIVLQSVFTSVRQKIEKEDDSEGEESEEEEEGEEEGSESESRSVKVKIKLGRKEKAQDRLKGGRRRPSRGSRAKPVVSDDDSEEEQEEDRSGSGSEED
In short: as §1

T1 sequence (P51531 whole entry): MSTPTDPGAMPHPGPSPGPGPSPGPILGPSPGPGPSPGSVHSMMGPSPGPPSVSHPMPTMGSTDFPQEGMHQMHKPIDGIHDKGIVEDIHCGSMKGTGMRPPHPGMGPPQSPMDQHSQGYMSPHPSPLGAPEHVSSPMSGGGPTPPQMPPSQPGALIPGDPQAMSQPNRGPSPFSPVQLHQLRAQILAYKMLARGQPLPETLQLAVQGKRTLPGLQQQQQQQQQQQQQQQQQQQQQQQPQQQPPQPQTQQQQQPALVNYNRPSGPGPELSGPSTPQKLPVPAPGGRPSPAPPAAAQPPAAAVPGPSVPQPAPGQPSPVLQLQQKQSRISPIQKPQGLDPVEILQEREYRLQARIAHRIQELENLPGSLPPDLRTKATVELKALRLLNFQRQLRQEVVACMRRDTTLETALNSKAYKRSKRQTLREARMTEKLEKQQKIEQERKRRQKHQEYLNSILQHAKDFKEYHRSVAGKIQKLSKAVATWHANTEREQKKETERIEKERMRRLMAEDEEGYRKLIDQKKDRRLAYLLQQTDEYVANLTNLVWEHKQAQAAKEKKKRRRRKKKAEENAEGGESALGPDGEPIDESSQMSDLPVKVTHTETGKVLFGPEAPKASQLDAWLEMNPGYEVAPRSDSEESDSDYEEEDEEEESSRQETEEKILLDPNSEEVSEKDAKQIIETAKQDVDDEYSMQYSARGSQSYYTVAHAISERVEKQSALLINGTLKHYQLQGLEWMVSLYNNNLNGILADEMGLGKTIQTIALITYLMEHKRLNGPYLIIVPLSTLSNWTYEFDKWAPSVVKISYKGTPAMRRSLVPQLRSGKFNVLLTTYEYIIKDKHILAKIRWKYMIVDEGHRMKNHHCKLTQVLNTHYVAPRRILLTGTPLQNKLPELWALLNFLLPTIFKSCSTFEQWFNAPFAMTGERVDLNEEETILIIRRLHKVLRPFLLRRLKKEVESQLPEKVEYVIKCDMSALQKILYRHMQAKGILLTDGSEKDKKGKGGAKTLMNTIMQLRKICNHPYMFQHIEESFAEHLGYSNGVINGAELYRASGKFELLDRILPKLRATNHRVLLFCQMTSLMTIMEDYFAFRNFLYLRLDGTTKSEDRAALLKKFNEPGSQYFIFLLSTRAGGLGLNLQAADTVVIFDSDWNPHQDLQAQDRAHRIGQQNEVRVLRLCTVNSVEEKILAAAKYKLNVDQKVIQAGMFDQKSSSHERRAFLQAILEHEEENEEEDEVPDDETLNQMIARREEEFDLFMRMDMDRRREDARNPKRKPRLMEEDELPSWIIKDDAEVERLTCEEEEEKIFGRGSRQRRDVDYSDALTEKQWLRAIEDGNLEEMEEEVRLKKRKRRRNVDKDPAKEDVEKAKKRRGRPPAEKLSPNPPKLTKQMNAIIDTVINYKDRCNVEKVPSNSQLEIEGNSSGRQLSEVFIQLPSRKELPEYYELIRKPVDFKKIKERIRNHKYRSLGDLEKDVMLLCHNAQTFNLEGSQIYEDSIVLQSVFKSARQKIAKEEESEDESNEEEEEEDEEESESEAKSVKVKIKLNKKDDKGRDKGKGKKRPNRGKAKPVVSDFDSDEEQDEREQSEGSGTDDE

SMARCA2 MSD H1299 degradation 24 h: Dmax % ([2]; NCI-H1299 cells) | SMILES | Dmax [1] [%] | DC50 [1] [nM] | Dmax [2] [%] | DC50 ([2]; NCI-H1299 cells) [nM] | Dmax [3] [%] | DC50 [3] [nM]
– | Cn1c(=O)n(C2CCC(=O)NC2=O)c2ccc(CCCCCCCc3nccc(N4C5CCC4CN(c4cc(-c6ccccc6O)nnc4N)C5)n3)cc21 (centres unmarked) [I-287, 3-(5-(7-(4-(3-(3-amino-6-(2-hydroxyphenyl)pyridazin-4-yl)-3,8-diazabicyclo[3.2.1]octan-8-yl)pyrimidin-2-yl)heptyl)-3-methyl-2-oxo-2,3-dihydro-1H-benzo[d]imidazol-1-yl)piperidine-2,6-dione] | 70 to 90 | < 100 | > 90 | 100 to 500 | 50 to 70 | > 1000
– | Cc1ncsc1-c1ccc(CNC(=O)[C@@H]2C[C@@H](O)CN2C(=O)[C@@H](NC(=O)[C@H]2CC[C@@H](c3cnc(N4C5CCC4CN(c4cc(-c6ccccc6O)nnc4N)C5)nc3)CC2)C(C)(C)C)cc1 [I-336] | > 90 | < 100 | – | < 100 | > 90 | < 100
– | Cc1ncsc1-c1ccc(CNC(=O)[C@@H]2C[C@@H](O)CN2C(=O)[C@@H](NC(=O)[C@H]2CC[C@H](c3cnc(N4C5CCC4CN(c4cc(-c6ccccc6O)nnc4N)C5)nc3)CC2)C(C)(C)C)cc1 [I-337, (2S,4R)-1-((2S)-2-((1r,4S)-4-(2-(3-(3-amino-6-(2-hydroxyphenyl)pyridazin-4-yl)-3,8-diazabicyclo[3.2.1]octan-8-yl)pyrimidin-5-yl)cyclohexanecarboxamido)-3,3-dimethylbutanoyl)-4-hydroxy-N-(4-(4-methylthiazol-5-yl)benzyl)pyrrolidine-2-carboxamide] | > 90 | < 100 | > 90 | < 100 | > 90 | < 100
A (A (>90% degradation)) | Cc1ncsc1-c1ccc(CNC(=O)[C@@H]2C[C@@H](O)CN2C(=O)[C@@H](NC(=O)[C@H]2CC3(C2)C[C@H](N2CCC(n4cc(-c5cc(-c6ccccc6O)nnc5N)cn4)CC2)C3)C(C)(C)C)cc1 (some centres unmarked) [I-389] | 70 to 90 | < 100 | – | 100 to 500 | 70 to 90 | < 100
– | Cc1ncsc1-c1ccc(CNC(=O)[C@@H]2C[C@@H](O)CN2C(=O)[C@@H](NC(=O)[C@H]2CC[C@@H](CN3CCC(n4cc(-c5cc(-c6ccccc6O)nnc5N)cn4)CC3)CC2)C(C)(C)C)cc1 [I-402] | 70 to 90 | < 100 | 70 to 90 | 100 to 500 | < 50 | > 1000
– | Cc1ncsc1-c1ccc(CNC(=O)[C@@H]2C[C@@H](O)CN2C(=O)[C@@H](NC(=O)[C@H]2CC[C@H](CN3CCC(n4cc(-c5cc(-c6ccccc6O)nnc5N)cn4)CC3)CC2)C(C)(C)C)cc1 [I-403] | 70 to 90 | < 100 | > 90 | 100 to 500 | < 50 | 501 to 1000

— patent publication US12624044B2, “SMARCA degraders and uses thereof” (Kymera Therapeutics, Inc., priority 2019, dated 2026)
